Assay results reported in PMC6979384, “Characterization of the plant homeodomain (PHD) reader family for their histone tail interactions” (Epigenetics & Chromatin, 2020).

Legend:
Experiment in all cases: Histone peptide microarray
Format in all cases: binding, human
Details in all cases: each array performed twice, total n = 4
ING4 = system: ING4
Outline: (§1)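 Mean ± SD of 4 replicate array intensities; GST-PHD finger at 0.5 μM against 293 PTM-bearing histone peptides.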

DPF2 (PPC2W2) = system: DPF2 (PPC2W2)
Outline: as §1

SP140L = system: SP140L
Outline: as §1

ING3 = system: ING3
Outline: as §1

BAZ2B = system: BAZ2B
Outline: as §1

CHD5 (PPCC) = system: CHD5 (PPCC)
Outline: as §1

MORC3 (CW) = system: MORC3 (CW)
Outline: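 GST-tagged PHD readers, 0.5 μM, probed on a microarray of 293 synthetic histone peptides carrying single or combinatorial PTMs (optimized Petell protocol). Signals are averaged over 4 replicates and expressed as relative binding.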

CHD5 (PCC) = system: CHD5 (PCC)
Outline: as §1

KDM7A = system: KDM7A
Outline: as §1

RAG2 = system: RAG2
Outline: as §1

ING1 = system: ING1
Outline: as §1

PHRF1 (RP) = system: PHRF1 (RP)
Outline: as §1

KDM5A (3) = system: KDM5A (3)
Outline: as §1

ING5 = system: ING5
Outline: as §1

KDM5A (1) = system: KDM5A (1)
Outline: as §1

PHF23 = system: PHF23
Outline: as §1

PHF21A = system: PHF21A
Outline: as §1

ING2 = system: ING2
Outline: as §1

KDM5B (1) = system: KDM5B (1)
Outline: as §1

CHD4 (PPCC) = system: CHD4 (PPCC)
Outline: as §1

BPTF (PB) = system: BPTF (PB)
Outline: as §1

KDM4C (TTP) = system: KDM4C (TTP)
Outline: as §1

PHF8 = system: PHF8
Outline: as §1

MLL5 = system: MLL5
Outline: as §1

TAF3 = system: TAF3
Outline: as §1

AIRE (PP) = system: AIRE (PP)
Outline: as §1

PHF2 = system: PHF2
Outline: as §1

KDM5B (3) = system: KDM5B (3)
Outline: as §1

PHF13 = system: PHF13
Outline: as §1

DIDO1 = system: DIDO1
Outline: as §1

TRIM66 (PB) = system: TRIM66 (PB)
Outline: as §1

For H3K4me3R8me2a: H3 1-20, the “Array Heatmap value (peptide array signal)” value (“Array Heatmap value” for short) (ING4; ING4, sheet "Array Heatmap") was 0.3653, the “Array Heatmap value” value (DPF2 (PPC2W2); DPF2 (PPC2W2), sheet "Array Heatmap") was 0.6137 and the “Array Heatmap value” value (SP140L; SP140L, sheet "Array Heatmap") was 0.3243. The “Array Heatmap value” value (ING3; ING3, sheet "Array Heatmap") was 0.4064, the “Array Heatmap value” value (BAZ2B; BAZ2B, sheet "Array Heatmap") was 0.3334 and the “Array Heatmap value” value (CHD5 (PPCC); CHD5 (PPCC), sheet "Array Heatmap") was 0.4208. For the same substance, the “Array Heatmap value” value (MORC3 (CW); MORC3 (CW), sheet "Array Heatmap") was 0.4123, the “Array Heatmap value” value (CHD5 (PCC); CHD5 (PCC), sheet "Array Heatmap") was 0.6343 and the “Array Heatmap value” value (KDM7A; KDM7A, sheet "Array Heatmap") was 0.3319. The “Array Heatmap value” value (RAG2; RAG2, sheet "Array Heatmap") was 0.2561, the “Array Heatmap value” value (ING1; ING1, sheet "Array Heatmap") was 0.5333 and the “Array Heatmap value” value (PHRF1 (RP); PHRF1 (RP), sheet "Array Heatmap") was 0.4161. The “Array Heatmap value” value (KDM5A (3); KDM5A (3), sheet "Array Heatmap") was 0.5067, the “Array Heatmap value” value (ING5; ING5, sheet "Array Heatmap") was 0.2674 and the “Array Heatmap value” value (KDM5A (1); KDM5A (1), sheet "Array Heatmap") was 0.3616. The “Array Heatmap value” value (PHF23; PHF23, sheet "Array Heatmap") was 0.5109, the “Array Heatmap value” value (PHF21A; PHF21A, sheet "Array Heatmap") was 0.4017 and the “Array Heatmap value” value (ING2; ING2, sheet "Array Heatmap") was 0.6387. For the same substance, the “Array Heatmap value” value (KDM5B (1); KDM5B (1), sheet "Array Heatmap") was 0.5478, the “Array Heatmap value” value (CHD4 (PPCC); CHD4 (PPCC), sheet "Array Heatmap") was 0.4923 and the “Array Heatmap value” value (BPTF (PB); BPTF (PB), sheet "Array Heatmap") was 0.2864. For the same substance, the “Array Heatmap value” value (KDM4C (TTP); KDM4C (TTP), sheet "Array Heatmap") was 0.39, the “Array Heatmap value” value (PHF8; PHF8, sheet "Array Heatmap") was 0.377 and the “Array Heatmap value” value (MLL5; MLL5, sheet "Array Heatmap") was 0.5116. The “Array Heatmap value” value (TAF3; TAF3, sheet "Array Heatmap") was 0.2483, the “Array Heatmap value” value (AIRE (PP); AIRE (PP), sheet "Array Heatmap") was 0.3453 and the “Array Heatmap value” value (PHF2; PHF2, sheet "Array Heatmap") was 0.5013. For the same substance, the “Array Heatmap value” value (KDM5B (3); KDM5B (3), sheet "Array Heatmap") was 0.4037, the “Array Heatmap value” value (PHF13; PHF13, sheet "Array Heatmap") was 0.5067 and the “Array Heatmap value” value (DIDO1; DIDO1, sheet "Array Heatmap") was 0.6362. For the same substance, the “Array Heatmap value” value (TRIM66 (PB); TRIM66 (PB), sheet "Array Heatmap") was 0.5377.
For H3K9ac + K14ac + K18ac: H3 1-20, the “Array Heatmap signal (histone peptide microarray)” value (from here on “Array Heatmap signal”) (ING4; GST-tagged ING4, sheet Array Heatmap) was 0.4438, the “Array Heatmap signal” value (DPF2 (PPC2W2); GST-tagged DPF2 (PPC2W2 = Dual PHD + C2W2-type Zn-finger), sheet Array Heatmap) was 0.8971 and the “Array Heatmap signal” value (SP140L; GST-tagged SP140L, sheet Array Heatmap) was 0.346. For the same substance, the “Array Heatmap signal” value (ING3; GST-tagged ING3, sheet Array Heatmap) was 0.4687, the “Array Heatmap signal” value (BAZ2B; GST-tagged BAZ2B, sheet Array Heatmap) was 0.6427 and the “Array Heatmap signal” value (CHD5 (PPCC); GST-tagged CHD5 (PPCC = Dual PHD + Dual Chromodomain), sheet Array Heatmap) was 0.5238. For the same substance, the “Array Heatmap signal” value (MORC3 (CW); GST-tagged MORC3 (CW = CW-type Zn-finger), sheet Array Heatmap) was 0.5442, the “Array Heatmap signal” value (CHD5 (PCC); GST-tagged CHD5 (PCC = PHD + Dual Chromodomain), sheet Array Heatmap) was 0.8362 and the “Array Heatmap signal” value (KDM7A; GST-tagged KDM7A, sheet Array Heatmap) was 0.3112. The “Array Heatmap signal” value (RAG2; GST-tagged RAG2, sheet Array Heatmap) was 0.2782, the “Array Heatmap signal” value (ING1; GST-tagged ING1, sheet Array Heatmap) was 0.5813 and the “Array Heatmap signal” value (PHRF1 (RP); GST-tagged PHRF1 (RP), sheet Array Heatmap) was 0.8654. For the same substance, the “Array Heatmap signal” value (KDM5A (3); GST-tagged KDM5A (3), sheet Array Heatmap) was 0.5902, the “Array Heatmap signal” value (ING5; GST-tagged ING5, sheet Array Heatmap) was 0.3256 and the “Array Heatmap signal” value (KDM5A (1); GST-tagged KDM5A (1), sheet Array Heatmap) was 0.4668. The “Array Heatmap signal” value (PHF23; GST-tagged PHF23, sheet Array Heatmap) was 0.5614, the “Array Heatmap signal” value (PHF21A; GST-tagged PHF21A, sheet Array Heatmap) was 0.4657 and the “Array Heatmap signal” value (ING2; GST-tagged ING2, sheet Array Heatmap) was 0.62. For the same substance, the “Array Heatmap signal” value (KDM5B (1); GST-tagged KDM5B (1), sheet Array Heatmap) was 0.5879, the “Array Heatmap signal” value (CHD4 (PPCC); GST-tagged CHD4 (PPCC = Dual PHD + Dual Chromodomain), sheet Array Heatmap) was 0.6424 and the “Array Heatmap signal” value (BPTF (PB); GST-tagged BPTF (PB = PHD + Bromodomain), sheet Array Heatmap) was 0.3483. The “Array Heatmap signal” value (KDM4C (TTP); GST-tagged KDM4C (TTP = Tandem Tudor domain + PHD), sheet Array Heatmap) was 0.4368, the “Array Heatmap signal” value (PHF8; GST-tagged PHF8, sheet Array Heatmap) was 0.3679 and the “Array Heatmap signal” value (MLL5; GST-tagged MLL5, sheet Array Heatmap) was 0.5367. The “Array Heatmap signal” value (TAF3; GST-tagged TAF3, sheet Array Heatmap) was 0.2816, the “Array Heatmap signal” value (AIRE (PP); GST-tagged AIRE (PP), sheet Array Heatmap) was 0.4138 and the “Array Heatmap signal” value (PHF2; GST-tagged PHF2, sheet Array Heatmap) was 0.5699. For the same substance, the “Array Heatmap signal” value (KDM5B (3); GST-tagged KDM5B (3), sheet Array Heatmap) was 0.4869, the “Array Heatmap signal” value (PHF13; GST-tagged PHF13, sheet Array Heatmap) was 0.5825 and the “Array Heatmap signal” value (DIDO1; GST-tagged DIDO1, sheet Array Heatmap) was 0.777. For the same substance, the “Array Heatmap signal” value (TRIM66 (PB); GST-tagged TRIM66 (PB = PHD + Bromodomain), sheet Array Heatmap) was 0.7029.
